# “And” between values parts separate entries of the source, which are not always exact repeats. Equal entries are not always repeated.
# Assays:
# Type in all cases: functional, Homo sapiens
# Design in all cases: dose or concentration left out as unconfirmed
# [1] = test system: Colon cancer organoid; assay: (§1) Image-based profiling of donated chemical probes and chemogenomic kinase set in O06 CRC organoid. Image analysis is performed on the sum area metric, and the data were normalized to the DMSO control. After imaging the organoid viability is measured using the OneGloEX Luciferase Assay System. The normalized viability data and sum area are reported.
# [2] = test system: Colon cancer organoid; assay: as §1, with “O09” for “O06”
# [3] = test system: Colon cancer organoid; assay: as §1, with “O21” for “O06”
SMILES,Cell Viability ([1]; Replication number 1),Cell Viability ([1]; Replication number 2),Cell Viability ([2]; Replication number 1),Cell Viability ([2]; Replication number 2),Cell Viability ([3]; Replication number 1),Cell Viability ([3]; Replication number 2)
CCOC(=O)c1c(/C(C#N)=C\N)c2ccc(Cl)c(Cl)c2n1C,68.8446% and 103.482%,89.5184% and 120.135%,79.2888% and 103.726%,80.6301% and 101.308%,124.932% and 127.137%,116.619% and 130.014%
CCOc1cc(N2CCC(O)CC2)ccc1Nc1ncc2c(n1)N(C)c1ccccc1C(=O)N2C,105.657% and 158.464%,54.5485% and 108.792%,50.6693% and 60.5891%,44.9186% and 56.4198%,109.771% and 116.516%,106.608% and 109.968%
CNc1nc(-c2ccc3c(N)n[nH]c3c2)cc(N2C[C@@H](C(=O)NC3CCCCC3)CC[C@H]2C)n1,59.7664% and 83.0769%,75.2742% and 90.8217%,19.6659% and 24.7593%,39.1039% and 41.4354%,64.6112% and 105.857%,53.2272% and 96.363%
Cc1ccc(NC(=O)Nc2cc(C(F)(F)F)ccc2F)cc1Nc1ccc2c(c1)NC(=O)/C2=C\c1ccc[nH]1,171.109% and 157.262%,144.83% and 120.438%,128.92% and 93.5433%,146.444% and 106.907%,103.098% and 128.078%,94.098% and 129.212%
OCCn1cc(-c2ccc3c(c2)CCC3=NO)c(-c2ccncc2)n1,89.1031% and 90.5828%,141.492% and 108.175%,111.659% and 102.228%,89.8993% and 62.6286%,88.6835% and 115.401%,96.5689% and 114.574%
COc1cc2c(NC3CCN(C(C)C)CC3)nc(N3CCC(F)(F)CC3)nc2cc1OCCCN1CCCC1,71.9409% and 120.564%,77.7589% and 98.4599%,87.3897% and 128.439%,117.725% and 126.861%,89.3609% and 142.848%,55.1916% and 97.1957%
Cc1sc2c(c1C)C(c1ccc(Cl)cc1)=N[C@H](CC(=O)OC(C)(C)C)c1nnc(C)n1-2,124.069% and 114.282%,126.933% and 90.5736%,84.3348% and 91.1128%,66.0131% and 88.6601%,103.643% and 116.982%,106.671% and 110.621%
COc1ccc(CCc2nc3cc(-c4c(C)noc4C)ccc3n2C[C@H](C)N2CCOCC2)cc1Cl,175.76% and 138.685%,131.173% and 129.766%,60.3888% and 74.4204%,92.6649% and 71.2702%,102.391% and 140.496%,95.0347% and 135.859%
COc1cc(C#N)ccc1S(=O)(=O)Nc1ccc2c(c1)cc(C)c(=O)n2C,109.695% and 120.805%,114.995% and 99.8938%,120.569% and 113.833%,161.546% and 95.5021%,105.091% and 139.321%,90.295% and 90.2148%
Cc1ccc(C(=O)Nc2cccc(C(F)(F)F)c2)cc1Nc1nc(-c2cccnc2)nc2c1cnn2C,111.788% and 111.949%,93.5249% and 94.6015%,119.681% and 88.2655%,229.025% and 116.079%,58.179% and 60.2091%,55.1529% and 56.0201%
O=C(/C=C/N1C[C@H]2C[C@@H]1CN2c1ccccn1)c1ccccc1O,142.277% and 136.268%,180.564% and 107.78%,108.639% and 102.241%,93.5613% and 97.7827%,136.807% and 131.679%,93.5448% and 99.3437%
CC1=C(C(=O)Nc2cc3cn[nH]c3cc2F)C(c2ccc(C(F)(F)F)cc2)CC(=O)N1 (configuration not stated),108.292% and 112.394%,105.064% and 92.1337%,137.27% and 97.7404%,200.569% and 118.509%,120.369% and 99.2335%,116.368% and 107.089%
CCCS(=O)(=O)c1nc(NC2CC2)cc(-c2ccc3c(ccn3C3CC(C)(C)NC(C)(C)C3)c2)n1,33.8005% and 71.7584%,41.5782% and 52.8147%,90.8161% and 100.386%,72.9195% and 100.634%,108.157% and 124.037%,90.7114% and 110.084%
CCOc1cn(-c2ccc(F)cc2C)nc1C(=O)Nc1ccc(Oc2ccnc3cc(OC)c(OC)cc23)c(F)c1,102.988% and 123.299% and 120.024% and 109.723%,127.856% and 122.776% and 99.2168% and 90.0771%,106.171% and 88.0162% and 65.7353% and 75.3%,96.6425% [middle of 4 runs],103.157% and 102.021% and 78.4654% and 79.1638%,106.966% and 96.7254% and 100.887% and 106.513%
CCC(=O)N1CCOc2c(cc(-c3ccc(OC)c(OC)c3)cc2OCC2CCCN(C)C2)C1 (configuration not stated),144.88% and 142.792%,105.633% and 74.0839%,89.2152% and 99.2272%,160.901% and 114.888%,115.467% and 112.867%,97.0638% and 103.64%
O=C(NCC(=O)N1CCCC1)Nc1ccc2cnccc2c1,118.335% and 117.664%,145.589% and 95.8311%,77.5338% and 89.49%,125.69% and 99.4932%,118.981% and 107.577%,82.9956% and 91.8258%
C=CC(=O)Nc1cccc(C(=O)Nc2ccc(Nc3cc(-c4[nH]c(SC)nc4C)ccn3)cc2)c1,120.545% and 116.4%,120.557% and 114.139%,195.827% and 119.682%,254.944% and 117.159%,87.1744% and 91.9861%,133.203% and 116.877%
Cc1cc2c(cc1N1C(=O)c3cccc4c(CCCO)ccc(c34)C1=O)n(C)c(=O)n2C,68.0185% and 75.3826%,71.5666% and 43.0165%,57.3322% and 75.8114%,118.076% and 83.8137%,93.3541% and 102.286%,93.8629% and 86.4558%
Cn1cc(CCn2cnc(-c3cnn(C)c3)c2-c2ccc(C#N)cc2)cn1,175.784% and 127.57%,222.733% and 136.219%,104.672% and 93.4312%,96.0156% and 86.9496%,99.776% and 95.2319%,89.4066% and 104.177%
CCCCNNC(=O)c1ccc(Br)cc1,141.347% and 94.2282%,136.66% and 100.85%,73.4793% and 89.7218%,77.458% and 82.3883%,97.5198% and 109.34%,111.608% and 95.0477%
CCN(CC)S(=O)(=O)Nc1cccc(-c2ccc3c(NC(=O)C4CC4)n[nH]c3c2)c1,115.301% and 130.405%,90.7141% and 75.8621%,118.731% and 102.205%,162.059% and 116.31%,106.348% and 90.1082%,91.5896% and 92.3751%
CC(C)C(=O)Nc1n[nH]c2cc(-c3cccc(NS(=O)(=O)C4CC4)c3)ccc12,98.7656% and 120.438%,86.9624% and 76.1389%,171.396% and 120.765%,122.795% and 96.2655%,108.143% and 100.309%,99.3973% and 100.309%
Clc1cc2c(NC3CCCC3)nnc(-c3ccncc3)c2cc1Cl,62.2011% and 99.302%,123.043% and 92.9634%,139.675% and 109.428%,148.163% and 121.159%,113.128% and 118.158%,77.3442% and 110.621%
O=C(NC[C@H](O)CN1CCc2ccccc2C1)c1ccnc(NC2CCC2)c1,27.5023% and 69.1007%,41.1138% and 71.2161%,64.9401% and 74.8841%,97.6148% and 75.2613%,82.4125% and 78.1842%,61.8775% and 72.494%
CN1C(=O)c2sccc2N(C)c2nc(Nc3ccc(S(N)(=O)=O)cc3)ncc21,15.9976% and 28.488%,18.284% and 43.3933%,28.4515% and 23.8118%,41.5113% and 34.0138%,57.1917% and 77.4913%,65.5582% and 80.0288%
Cl.Cl.NC1(c2ccc(-c3nc4ccn5c(=O)[nH]nc5c4cc3-c3ccccc3)cc2)CCC1,82.4513% and 94.6892%,74.7027% and 107.425%,47.4878% and 37.8628%,66.6317% and 37.3678%,81.7246% and 91.8083%,79.6922% and 92.9418%
Cl.O=C([C@@H](Cc1cccc(C(F)(F)F)c1)NS(=O)(=O)c1cc(F)c2c(c1)CCNC2)N1CCCC1,106.357% and 105.584%,187.159% and 130.005%,80.2483% and 102.241%,101.188% and 101.204%,76.7615% and 83.4749%,81.6272% and 85.3819%

# — ChEMBL document CHEMBL5724558, “Image-based profiling of drug vulnerabilities in CRC organoids” (2024)
